Test results taken from US20070243576A1, “Method to confirm immunosuppression in human patients by measuring lymphocyte activation” (priority 2001, published 2007).

Columns and labels:
[1] = tested on: T lymphocytes (CD4 subset) in whole blood; experiment: Whole blood ATP response after stimulation with PHA, 2-24 hr (Example 2); type: cell-based, human; details: PHA 1%
Procedure: Aliquots of the blood were diluted 1:10 in RPMI 1640. Replicates received either no addition or the mitogen PHA at 1% final concentration. Samples were incubated at 37° C. […] The cells and beads were placed next to a permanent magnet positioned such that the magnetic field was in a direction perpendicular to gravity. […] Assay Reagent (luciferin/luciferase) was added to the samples ATP production was determined as described above. […] The response is clearly evident at 4 hours of incubation, peaks at 8 hours, and remains high at 24 hrs post stimulation.

[2] = tested on: T-Lymphocytes (CD4 subset) in whole blood; type: cell-based, human
[3] = tested on: T-Lymphocytes (CD4 subset) in whole blood; experiment: T-lymphocyte ATP response to PHA in normal and HIV infected donors (Example 4); details: PHA 10 ug/mL, overnight incubation, anti-CD4 beads
[4] = tested on: T-lymphocytes in whole blood; type: cell-based, human

Substance	increase in ATP over background ([1]; all time points (2, 4, 6, 8, 24 hr))	time of peak ATP response ([1]; time course 2-24 hr) [h]	increase in ATP over background [2]	time within which activation of the T lymphocyte subset is detected [2] [min]	ATP response to PHA, HIV+ population versus normal donors [3]	increase in ATP over background [4]
Phytohemagglutinin [PHA]	increase in ATP over background	8	statistically significant increase	≤ 30	lower than the normal donor population	
Tetanus Toxoid			significant	≤ 300		increase in ATP over background
